Experiment [1] has as its target Major prion protein (Homo sapiens, UniProt P04156). Format: functional, cell-based.
For experiment [2], the target named is Cytochrome P450 2D6 (Homo sapiens, UniProt P10635).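 Also: CYP2D6 member of a cytochrome P450 panel assay.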
Experiment [3] can be described thus: cells.
The nature of experiment [4]: human group III sPLA2 inhibitors, dose response, biochemical, QFRET, IC50 (AID 743457).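 Also: green fluorescence rise as the enzyme cleaves BODIPY PC-A2 in liposomes; potency for inhibition of the enzyme.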
Experiment [5] addresses Albumin (Bos taurus, UniProt P02769). The experiment can be described thus: Counterscreen for inhibitors of T-cell receptor (TCR)-CD3 interaction: Fluorescence-based biochemical high throughput dose response assay to identify inhibitors of T-cell receptor (TCR)-CD3 interaction using a TAMRA-labeled BSA probe. Format: functional.
Experiment [6] concerns the target T1, Oxysterols receptor LXR-beta (Homo sapiens, UniProt P55055).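 Also: Cell-based luminescence dose-response assay of agonist activity at LXR, run as a confirmatory counterscreen to a daf-12 agonist screen; HEK293 cells with Gal4-LXR fusion and GAL4-driven luciferase reporter; agonist potency from rising luciferase signal of a Gal4-LXR reporter.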
T1 sequence (P55055 whole entry): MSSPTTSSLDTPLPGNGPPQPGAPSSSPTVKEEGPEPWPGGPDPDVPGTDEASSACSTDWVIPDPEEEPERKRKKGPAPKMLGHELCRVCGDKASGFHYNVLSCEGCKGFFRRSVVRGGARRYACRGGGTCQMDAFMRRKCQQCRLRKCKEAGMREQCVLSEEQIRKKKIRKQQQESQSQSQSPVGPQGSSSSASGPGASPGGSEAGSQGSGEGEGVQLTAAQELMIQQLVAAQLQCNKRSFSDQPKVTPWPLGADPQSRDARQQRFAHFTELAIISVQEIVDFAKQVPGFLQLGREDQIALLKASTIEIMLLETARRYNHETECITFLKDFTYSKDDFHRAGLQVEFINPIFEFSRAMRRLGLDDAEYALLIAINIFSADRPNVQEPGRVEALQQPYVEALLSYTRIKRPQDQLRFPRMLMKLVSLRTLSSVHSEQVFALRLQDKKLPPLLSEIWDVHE
It counts as functional, cell-based.

A short description of experiment [7]: cells. This is another data set of the same source.
For experiment [8], the target named is T2, Polyadenylate-binding protein 1 (Homo sapiens, UniProt P11940). The experiment in a line: PABP1 MLLE–PAM2 interaction inhibitors, dose response, miRNA deadenylation inhibitor project, biochemical, fluorescence polarization, Cy5-PAM2 peptide, secondary (AID 602260). It counts as functional. Conditions: read-out: IC50_Mean.
Experiment [9] has as its target T2, Polyadenylate-binding protein 1. The experiment can be described thus: PABP1 MLLE–PAM2 binding inhibitor potency, dose response, biochemical, fluorescence polarization, FITC-PAM2 peptide (AID 602259). As to conditions: read-out: IC50_Mean. It counts as functional.
The target of experiment [10] is Nonstructural protein 1 (Influenza A virus, UniProt Q194T2). It counts as functional, Influenza A virus (A/California/07/2009(H1N1)).
The target of experiment [11] is T3, Protein skinhead-1 (Caenorhabditis elegans, UniProt P34707).
T3 sequence (P34707 whole entry): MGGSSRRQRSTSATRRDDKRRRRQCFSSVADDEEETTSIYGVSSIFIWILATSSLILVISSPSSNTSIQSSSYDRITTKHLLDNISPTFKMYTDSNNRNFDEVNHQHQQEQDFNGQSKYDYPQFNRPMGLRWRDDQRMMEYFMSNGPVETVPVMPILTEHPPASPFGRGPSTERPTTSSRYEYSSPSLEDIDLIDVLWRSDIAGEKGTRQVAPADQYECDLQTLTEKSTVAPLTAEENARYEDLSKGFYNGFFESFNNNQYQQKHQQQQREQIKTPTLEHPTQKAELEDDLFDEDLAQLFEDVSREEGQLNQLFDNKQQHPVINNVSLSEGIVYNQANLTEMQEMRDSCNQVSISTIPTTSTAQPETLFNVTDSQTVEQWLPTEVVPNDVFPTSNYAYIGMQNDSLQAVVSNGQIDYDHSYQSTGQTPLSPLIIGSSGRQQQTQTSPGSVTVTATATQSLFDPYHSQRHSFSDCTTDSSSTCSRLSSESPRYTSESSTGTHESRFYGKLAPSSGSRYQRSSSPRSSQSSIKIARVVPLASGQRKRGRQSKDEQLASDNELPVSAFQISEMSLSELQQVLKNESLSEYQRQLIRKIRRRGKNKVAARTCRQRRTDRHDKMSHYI
Format: functional.

In experiment [12] the target is Peroxisome proliferator-activated receptor gamma/Nuclear receptor coactivator 1 (Homo sapiens, UniProt P37231). The experiment in a line: TR-FRET dose response biochemical High Throughput Screening assay for agonists of the steroid receptor coactivator 1 (SRC-1) recruitment by the peroxisome proliferator-activated receptor gamma (PPAR gamma): non-selective agonists. [Related pubchem assays (depositor defined):AID1300, AID1808, AID504735, AID631]. Format: protein assay.

Experiment [13] has as its target Peroxisome proliferator-activated receptor gamma/Nuclear receptor coactivator 3 (Homo sapiens, UniProt P37231). The experiment in a line: TR-FRET dose response biochemical High Throughput Screening assay for agonists of the steroid receptor coactivator 3 (SRC-3) recruitment by the peroxisome proliferator-activated receptor gamma (PPAR gamma): non-selective agonists. [Related pubchem assays: 1301 (Confirmation screen.), 1048 (Primary screen.)]. It counts as functional.

Experiment [14] addresses Peroxisome proliferator-activated receptor gamma/Nuclear receptor coactivator 2 (Homo sapiens, UniProt P37231). The experiment can be described thus: TR-FRET dose response biochemical High Throughput Screening assay for agonists of the steroid receptor coactivator 2 (SRC-2) recruitment by the peroxisome proliferator-activated receptor gamma (PPAR gamma): non-selective agonists. [Related pubchem assays: 1297, 1032 ]. Format: functional.

In experiment [15] the target is Cytochrome P450 2C9 (Homo sapiens, UniProt P11712).
Experiment [16] concerns the target T4, Rac GTPase-activating protein 1 (Homo sapiens, UniProt Q9H0H5).
T4 sequence (Q9H0H5 whole entry): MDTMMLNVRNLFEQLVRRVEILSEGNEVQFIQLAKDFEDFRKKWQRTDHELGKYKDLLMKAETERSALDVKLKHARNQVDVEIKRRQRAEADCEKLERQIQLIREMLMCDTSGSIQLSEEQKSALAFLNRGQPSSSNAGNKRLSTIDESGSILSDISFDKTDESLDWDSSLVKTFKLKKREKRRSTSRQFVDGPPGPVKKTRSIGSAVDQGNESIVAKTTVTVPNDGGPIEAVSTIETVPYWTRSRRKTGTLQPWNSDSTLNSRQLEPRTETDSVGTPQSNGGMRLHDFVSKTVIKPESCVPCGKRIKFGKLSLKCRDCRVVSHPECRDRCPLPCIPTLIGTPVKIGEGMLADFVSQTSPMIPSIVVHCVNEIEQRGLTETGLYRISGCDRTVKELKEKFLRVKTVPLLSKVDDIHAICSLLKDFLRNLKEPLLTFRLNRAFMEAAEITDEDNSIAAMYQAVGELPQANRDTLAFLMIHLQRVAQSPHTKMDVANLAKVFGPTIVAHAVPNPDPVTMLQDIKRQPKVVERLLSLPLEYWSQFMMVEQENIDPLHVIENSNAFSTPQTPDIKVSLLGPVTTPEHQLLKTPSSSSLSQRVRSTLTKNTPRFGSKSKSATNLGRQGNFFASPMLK
The experiment in a line: MgcRacGAP GTPase-activating activity inhibitors, confirmation, biochemical, ADP Hunter fluorescence, primary and confirmatory (AID 624330). It counts as functional.

The target of experiment [17] is T5, Aminopeptidase N (Plasmodium falciparum FcB1/Columbia, UniProt O96935).
T5 sequence (O96935 whole entry): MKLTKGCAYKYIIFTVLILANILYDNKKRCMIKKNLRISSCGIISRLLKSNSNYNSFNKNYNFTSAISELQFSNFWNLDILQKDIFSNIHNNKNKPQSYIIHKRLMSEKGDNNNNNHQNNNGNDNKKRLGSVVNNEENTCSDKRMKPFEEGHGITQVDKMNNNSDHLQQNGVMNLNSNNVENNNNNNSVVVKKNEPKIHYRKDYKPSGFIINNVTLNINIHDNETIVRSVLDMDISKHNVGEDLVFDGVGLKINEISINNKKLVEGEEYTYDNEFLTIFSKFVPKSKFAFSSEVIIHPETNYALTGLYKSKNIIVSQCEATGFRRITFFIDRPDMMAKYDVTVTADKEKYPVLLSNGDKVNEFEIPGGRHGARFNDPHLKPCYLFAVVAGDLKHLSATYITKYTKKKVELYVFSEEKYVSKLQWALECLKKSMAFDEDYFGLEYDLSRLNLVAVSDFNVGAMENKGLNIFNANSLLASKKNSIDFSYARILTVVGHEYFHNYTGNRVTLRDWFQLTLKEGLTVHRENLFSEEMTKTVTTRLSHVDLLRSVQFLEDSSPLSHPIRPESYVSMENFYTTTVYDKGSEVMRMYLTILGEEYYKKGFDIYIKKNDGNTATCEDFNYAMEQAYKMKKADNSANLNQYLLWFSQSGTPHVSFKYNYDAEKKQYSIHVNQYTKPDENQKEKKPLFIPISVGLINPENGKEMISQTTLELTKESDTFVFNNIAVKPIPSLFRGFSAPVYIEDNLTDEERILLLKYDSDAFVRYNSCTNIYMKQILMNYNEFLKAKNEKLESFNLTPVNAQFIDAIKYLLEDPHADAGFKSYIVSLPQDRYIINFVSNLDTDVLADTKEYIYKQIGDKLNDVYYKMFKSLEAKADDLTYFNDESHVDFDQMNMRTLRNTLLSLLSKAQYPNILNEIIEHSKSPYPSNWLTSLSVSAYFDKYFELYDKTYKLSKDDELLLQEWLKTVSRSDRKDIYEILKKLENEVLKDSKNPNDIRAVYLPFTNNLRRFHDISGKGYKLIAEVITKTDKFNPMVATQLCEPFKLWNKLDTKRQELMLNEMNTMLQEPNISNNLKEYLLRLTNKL
The experiment can be described thus: P. falciparum M1AAP inhibitors, biochemical, fluorogenic H-Leu-NHMec substrate, 1536-well (AID 1445). More on the design: species or system Plasmodium falciparum 3D7, 3D7.

For experiment [18], the system named is Streptococcus sp. 'group A'. The experiment in a line: growth inhibition of control SK(-) GAS strain, dose response, counter-screen for streptokinase expression inhibitor project, luminescence, kanamycin, BacTiterGlo, confirmation (AID 1900). It counts as functional, organism-based.
In experiment [19] the test system is Streptococcus. The experiment can be described thus: Group A Streptococcus viability loss, dose response, counter-screen for streptokinase expression inhibitor project, luminescence, BacTiterGlo (AID 1915).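 Also: potency for reduction of bacterial viability or growth.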 It counts as functional, organism-based.
Experiment [20] in a line: HEK293T cytotoxicity, dose response, cytotoxicity control for miR-122 modulator project, cell-based, activator set, cherry-pick (AID 720690).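 Also: HEK293T human cells scored for general mammalian cytotoxicity.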 Format: functional.

The structures appear in SMILES notation. Activity calls are given as the source filed them. Some results are limits rather than exact numbers.

For the compound `Clc1cccc(Nc2ncnc3ccc(Br)cc23)c1`, the IC50 is 6.28 µM (active) in experiment [1] and 122 µM (inactive) in [3]. The AC50 in experiment [2] was 31.6 µM (inconclusive).

As for `CCN(CC)S(=O)(=O)c1ccc(NC(=O)CSc2ncnc3ccccc23)cc1`, the IC50 was 7.17 µM (active) in [1] and > 138 µM (inactive) in experiment [3].

For the compound `CCOc1cc(NC(=O)C(C)C)c(OCC)cc1N=C(S)NCc1ccccc1`, the IC50 in [4] is > 122 µM (inactive).

With `COc1cccc(OCC(=O)NNC(=O)c2ccc3ccccc3c2O)c1`, the IC50 in experiment [5] is > 94.1 µM (inactive); in experiment [4], > 122 µM (inactive).

On to `COc1ccc(-c2cc3ccccc3c(=O)o2)cc1`, for which the EC50 in experiment [6] and in [7] was > 67.5 µM (inactive) throughout.

Turning to `CC(C)c1nc(SCC(=O)N2CC(=O)Nc3ccccc32)c2ccccc2n1`, the IC50 in [1] is 2.41 µM (active); in experiment [3], 67.3 µM (inactive).

As for `O=C(CSc1ncnc2ccccc12)NCc1ccco1`, the IC50 in experiment [8] is > 66 µM (inactive); in [9] it was > 66 µM (inactive); in [1], 6.83 µM (active); in [3], > 138 µM (inactive).

In the case of `O=C1c2ccccc2C(=O)c2c1cccc2N1CCOCC1`, the IC50 in experiment [10] is 19.7 µM (active); in [4], > 122 µM (inactive).

As to `O=C(/C=C\Nc1cccc(F)c1)c1cccs1`, the IC50 in experiment [11] is 28.1 µM (active). The EC50 in experiment [6] and in experiment [7] was > 67.5 µM (inactive) in each case.

Consider `c1ccc(Cc2nnc(Sc3ccccc3)c3ccccc23)cc1`, for which the EC50 in experiment [12] is > 79.4 µM (inactive); in [13] it was > 79.4 µM (not active); in [14] it was 2.35 µM (active). Further, the IC50 in experiment [1] was 6.51 µM (active); in experiment [3] it was 64 µM (inactive). For the same compound, the AC50 in experiment [15] was 25.1 µM (inconclusive).

For the compound `Cc1ccc(Nc2nnc(S)s2)c(C)c1`, the IC50 in experiment [16] was 154 µM (active); in experiment [4], > 122 µM (inactive).

In the case of `Cc1[nH]n(-c2ccccc2)c(=O)c1N=Nc1ccccc1O`, the IC50 in experiment [17] was < 1 µM (active); in experiment [5], > 94.1 µM (inactive). The EC50 in experiment [18] is 1.48 µM (active); in experiment [19], 2.12 µM (active).

On to `COCC(=O)N1[C@H](CO)[C@@H](c2ccccc2)[C@H]1CNC(=O)c1ccccn1`, for which the AC50 in experiment [20] is 37.2 µM (active).

For the compound `O=C(Nc1ccc(Cl)cc1)N1C[C@H]2[C@@H](c3ccccc31)[C@H](CO)N2CC1CCCCC1`, in experiment [20], the AC50 is 28.7 µM (active).

The values are drawn from ChEMBL document CHEMBL1201862, “PubChem BioAssay data set” (2004).
